From patent US9993536B2, “Peptides and combination of peptides and scaffolds for use in immunotherapy against renal cell carcinoma (RCC) and other cancers” (immatics biotechnologies GmbH, priority 2015, dated 2018)

What was measured:
CD8+ T cells = test: In vitro T-cell priming assay with aAPCs loaded with peptide/MHC complexes and anti-CD28 (immunogenicity, multimer staining); type: cell-based, human; details: in vitro immunogenicity, HLA class I peptides; percentage of positive wells
Text: In order to obtain information regarding the immunogenicity of the TUMAPs of the present invention, the inventors performed investigations using an in vitro T-cell priming assay based on repeated stimulations of CD8+ T cells with artificial antigen presenting cells (aAPCs) loaded with peptide/MHC complexes and anti-CD28 antibody.
In order to perform in vitro stimulations by artificial antigen presenting cells loaded with peptide-MHC complex (pMHC) and anti-CD28 antibody, the inventors first isolated CD8+ T cells from fresh HLA-A*02 leukapheresis products via positive selection using CD8 microbeads (Miltenyi Biotec, Bergisch-Gladbach, Germany) of healthy donors obtained from the University clinics Mannheim, Germany, after informed consent.
PBMCs and isolated CD8+ lymphocytes were incubated in T-cell medium (TCM) until use consisting of RPMI-Glutamax (Invitrogen, Karlsruhe, Germany) supplemented with 10% heat inactivated human AB serum (PAN-Biotech, Aidenbach, Germany), 100 U/ml Penicillin/100 μg/ml Streptomycin (Cambrex, Cologne, Germany), 1 mM sodium pyruvate (CC Pro, Oberdorla, Germany), 20 μg/ml Gentamycin (Cambrex). 2.5 ng/ml IL-7 (PromoCell, Heidelberg, Germany) and 10 U/ml IL-2 (Novartis Pharma, Nürnberg, Germany) were also added to the TCM at this step.
Generation of pMHC/anti-CD28 coated beads, T-cell stimulations and readout was performed in a highly defined in vitro system using four different pMHC molecules per stimulation condition and 8 different pMHC molecules per readout condition.
The purified co-stimulatory mouse IgG2a anti human CD28 Ab 9.3 (Jung et al., 1987) was chemically biotinylated using Sulfo-N-hydroxysuccinimidobiotin as recommended by the manufacturer (Perbio, Bonn, Germany). Beads used were 5.6 μm diameter streptavidin coated polystyrene particles (Bangs Laboratories, Illinois, USA).
pMHC used for positive and negative control stimulations were A*0201/MLA-001 (peptide […] (SEQ ID NO. 152) from modified Melan-A/MART-1) and A*0201/DDX5-001 ([…] from DDX5 (SEQ ID NO. 153)), respectively.
800.000 beads/200 μl were coated in 96-well plates in the presence of 4×12.5 ng different biotin-pMHC, washed and 600 ng biotin anti-CD28 were added subsequently in a volume of 200 μl. Stimulations were initiated in 96-well plates by co-incubating […] CD8+ T cells with 2×10^5 washed coated beads in 200 μl TCM supplemented with 5 ng/ml IL-12 (PromoCell) for 3 days at 37° C. Half of the medium was then exchanged by fresh TCM supplemented with 80 U/ml IL-2 and incubating was continued for 4 days at 37° C. This stimulation cycle was performed for a total of three times. For the pMHC multimer readout using 8 different pMHC molecules per condition, a two-dimensional combinatorial coding approach was used as previously described (Andersen et al., 2012) with minor modifications encompassing coupling to 5 different fluorochromes. Finally, multimeric analyses were performed by staining the cells with Live/dead near IR dye (Invitrogen, Karlsruhe, Germany), CD8-FITC antibody clone SK1 (BD, Heidelberg, Germany) and fluorescent pMHC multimers. For analysis, a BD LSRII SORP cytometer equipped with appropriate lasers and filters was used. Peptide specific cells were calculated as percentage of total CD8+ cells. Evaluation of multimeric analysis was done using the FlowJo software (Tree Star, Oregon, USA). In vitro priming of specific multimer+ CD8+ lymphocytes was detected by comparing to negative control stimulations.

HLA-A*02:01 = HLA-A*02:01 (Homo sapiens, UniProt P04439, D140Y/D185E/D98H/E176V/E277Q/G131W/G231S/I119V/I121R/I166T/I218V/L300P/L318F/N151K/N90K/P208A/P217A/Q86G/Q94H/R138H/R169H/T345S); test: MHC binding assay (UV-ligand exchange, beta2m ELISA); details: peptide exchange yield, HLA-A*02:01, UV-ligand exchange
Text: Candidate peptides for T cell based therapies according to the present invention were further tested for their MHC binding capacity (affinity). The individual peptide-MHC complexes were produced by UV-ligand exchange, where a UV-sensitive peptide is cleaved upon UV-irradiation, and exchanged with the peptide of interest as analyzed. Only peptide candidates that can effectively bind and stabilize the peptide-receptive MHC molecules prevent dissociation of the MHC complexes. To determine the yield of the exchange reaction, an ELISA was performed based on the detection of the light chain (β2m) of stabilized MHC complexes. The assay was performed as generally described in Rodenko et al. (Rodenko et al., 2006).
96 well MAXISorp plates (NUNC) were coated over night with 2 ug/ml streptavidin in PBS at room temperature, washed 4× and blocked for 1 h at 37° C. in 2% BSA containing blocking buffer. Refolded HLA-A*02:01/MLA-001 monomers served as standards, covering the range of 15-500 ng/ml. Peptide-MHC monomers of the UV-exchange reaction were diluted 100 fold in blocking buffer. Samples were incubated for 1 h at 37° C., washed four times, incubated with 2 ug/ml HRP conjugated anti-β2m for 1 h at 37° C., washed again and detected with TMB solution that is stopped with […]. Absorption was measured at 450 nm. Candidate peptides that show a high exchange yield (preferably higher than 50%, most preferred higher than 75%) are generally preferred for a generation and production of antibodies or fragments thereof, and/or T cell receptors or fragments thereof, as they show sufficient avidity to the MHC molecules and prevent dissociation of the MHC complexes.

Row | Substance | Wells positive [%] (CD8+ T cells) | Peptide exchange (MHC class I binding score) (HLA-A*02:01)
1 | 2 (ILWREVVTL; listed as Homo sapiens) [compound 2] | + (<20% = +) | +++ (≥50 = +++)
2 | 3 (RLLGEVQAL; listed as Homo sapiens) [compound 3] | + (<20% = +) | ++ (≥20% = ++)
3 | 6 (VLFELSKTV; listed as Homo sapiens) [compound 6] | + (<20% = +) | +++ (≥50 = +++)
4 | 7 (FLLSLIDRL; listed as Homo sapiens) [compound 7] | + (<20% = +) | +++ (≥50 = +++)
5 | 9 (ILLQKPDSV; listed as Homo sapiens) [compound 9] | + (<20% = +) | ++ (≥20% = ++)
6 | 15 (ILIKHLVKV; listed as Homo sapiens) [compound 15] | + (<20% = +) | ++ (≥20% = ++)
7 | 16 (FMPEELPQL; listed as Homo sapiens) [compound 16] | + (<20% = +) | ++ (≥20% = ++)
8 | 20 (AVANTTFTV; listed as Homo sapiens) [compound 20] | + (<20% = +) | ++ (≥20% = ++)
9 | 29 (ILLDLEQAL; listed as Homo sapiens) [compound 29] | + (<20% = +) | +++ (≥50 = +++)
10 | 95 (KLTDVGIATL; listed as Homo sapiens) [compound 95] | ++++ (>=70% = ++++) | ++ (≥20% = ++)
11 | 98 (KIPPVSPSI; listed as Homo sapiens) [compound 98] | ++++ (>=70% = ++++) | ++ (≥20% = ++)
